Measured values as given in US20250144220A1, “CONJUGATE FOR PREVENTING AND TREATING VIRAL INFECTIONS AND USE THEREOF” (priority 2021, published 2025).
Like-named read-outs stand apart in the source and are kept apart here.

Legend:
[1] = biological target: Influenza A H1N1 (A/California/04/2009) Neuraminidase/NA (Influenza A virus (A/California/04/2009(H1N1)), UniProt C3W5S3); assay: biochemical; settings: neuraminidase 1 U/ml
H1N1(A/PR/8/34) virus = assay: microbe, parasite or virus in culture; assay type: cell-based; settings: Influenza A virus, 96 h
in vitro = assay type: cell-based; settings: dog
Procedure: • Toxicity of the tested compounds to MDCK cells was quantified by MDCK cell lines. […] The cell control without compound was also configured. The cells were incubated in an incubator for 4 days. • 4) 50 μL of Cell-titer Glo was added to each well, and the chemiluminescence was detected by a Microplate Reader. Inhibition rate=(average value of cell control−value of tested compounds)/average value of cell control […]

IFV B/Lee/40 = assay: microbe, parasite or virus in culture; assay type: cell-based; settings: unidentified influenza virus, 120 h
[2] = system: IFV A/California/2/2014 (H3N2); assay: microbe, parasite or virus in culture; assay type: cell-based; settings: Influenza A virus, 120 h
[3] = system: A/Chicken/Jiangsu/k0402/2010 (H5N1); assay: microbe, parasite or virus in culture; assay type: cell-based; settings: Influenza A virus, H5N1, MDCK, 72 h
[4] = system: A/Chicken/Eastern/JTC11/2013 (H7N9); assay: microbe, parasite or virus in culture; assay type: cell-based; settings: Influenza A virus, H7N9, MDCK, 72 h
[5] = system: B/Jiangsu/YZ08/2018 (Yamagata); assay: microbe, parasite or virus in culture; assay type: cell-based; settings: unidentified influenza virus, MDCK cells, 72 hours
B/YZ29/2019 (Victoria) = assay: microbe, parasite or virus in culture; assay type: cell-based; settings: unidentified influenza virus, MDCK cells, 72 hours
H1N1(A/PR/8/34) = assay: microbe, parasite or virus in culture; assay type: cell-based, influenza virus H1N1(A/PR/8/34); settings: Influenza A virus, MDCK, 96 h
[6] = MDCK cells, H1N1(A/PR/8/34), 4 days, Cell-titer Glo
[7] = IFV B/Lee/40, MDCK cells, 5 days, read-out: EC50
[8] = IFV A/California/2/2014 (H3N2), MDCK cells, 5 days, read-out: EC50

Compound	IC50 [1]	EC50 (H1N1(A/PR/8/34) virus; [6])	CC50 at 4 days (in vitro)	other results
C#CCOCCOCCOCCOCCOC(=O)N(CCOCCN(C)C(=O)O[C@@H]([C@@H]1OC(C(=O)O)=C[C@H](NC(=N)N)[C@H]1NC(C)=O)[C@H](O)CO)CCOCCN(C)C(=O)O[C@@H]([C@@H]1OC(C(=O)O)=C[C@H](NC(=N)N)[C@H]1NC(C)=O)[C@H](O)CO [C-Inter-1]	10.4 nM	0.28 nM	> 100000 nM	–
C#CCOCCOCCOCCNC(=N)N(CCOCCN(C)C(=O)O[C@@H]([C@@H]1OC(C(=O)O)=C[C@H](NC(=N)N)[C@H]1NC(C)=O)[C@H](O)CO)CCOCCN(C)C(=O)O[C@@H]([C@@H]1OC(C(=O)O)=C[C@H](NC(=N)N)[C@H]1NC(C)=O)[C@H](O)CO [C-Inter-10]	10.8 nM	0.39 nM	> 100000 nM	–
O=C1c2c(O)c(=O)ccn2N([C@@H]2c3ccccc3SCc3c2ccc(F)c3F)[C@@H]2COCCN12 [Baloxavir, baloxivir]	–	–	–	EC50 (IFV B/Lee/40; MDCK): 1.47 nM; EC50 ([2]; H3N2, MDCK): 0.39 nM
C#CCOCCOCCOCCN1CCC(N(CCOCCN(C)C(=O)O[C@@H]([C@@H]2OC(C(=O)O)=C[C@H](NC(=N)N)[C@H]2NC(C)=O)[C@H](O)CO)CCOCCN(C)C(=O)O[C@@H]([C@@H]2OC(C(=O)O)=C[C@H](NC(=N)N)[C@H]2NC(C)=O)[C@H](O)CO)CC1 [C-Inter-3]	21.3 nM	0.39 nM	> 100000 nM	–
C#CCOCCOCCOCCOCCNS(=O)(=O)N(CCOCCN(C)C(=O)O[C@@H]([C@@H]1OC(C(=O)O)=C[C@H](NC(=N)N)[C@H]1NC(C)=O)[C@H](O)CO)CCOCCN(C)C(=O)O[C@@H]([C@@H]1OC(C(=O)O)=C[C@H](NC(=N)N)[C@H]1NC(C)=O)[C@H](O)CO [C-Inter-7]	7.64 nM	0.57 nM	> 100000 nM	–
C#CCOCCOCCOCCOCCN(C)C(=O)N(CCOCCN(C)C(=O)O[C@@H]([C@@H]1OC(C(=O)O)=C[C@H](NC(=N)N)[C@H]1NC(C)=O)[C@H](O)CO)CCOCCN(C)C(=O)O[C@@H]([C@@H]1OC(C(=O)O)=C[C@H](NC(=N)N)[C@H]1NC(C)=O)[C@H](O)CO [C-Inter-6]	11.9 nM	0.25 nM	> 100000 nM	–
C#CCOCCOCCOCCOC1CCN(C(=O)N(CCOCCN(C)C(=O)O[C@@H]([C@@H]2OC(C(=O)O)=C[C@H](NC(=N)N)[C@H]2NC(C)=O)[C@H](O)CO)CCOCCN(C)C(=O)O[C@@H]([C@@H]2OC(C(=O)O)=C[C@H](NC(=N)N)[C@H]2NC(C)=O)[C@H](O)CO)CC1 [C-Inter-5]	37 nM	0.45 nM	> 100000 nM	–
C#CCOCCOCCOCCN1CCN(C(=O)N(CCOCCN(C)C(=O)O[C@@H]([C@@H]2OC(C(=O)O)=C[C@H](NC(=N)N)[C@H]2NC(C)=O)[C@H](O)CO)CCOCCN(C)C(=O)O[C@@H]([C@@H]2OC(C(=O)O)=C[C@H](NC(=N)N)[C@H]2NC(C)=O)[C@H](O)CO)CC1 [C-Inter-4]	48.7 nM	–	–	–
CCC(CC)O[C@@H]1C=C(C(=O)O)C[C@H](N)[C@H]1NC(C)=O [Oseltamivir acid]	–	–	–	EC50 [3]: 210 nM; EC50 [4]: 540 nM; EC50 [5]: 780 nM; EC50 (B/YZ29/2019 (Victoria)): 710 nM; EC50 (IFV B/Lee/40; [7]): 801 nM; EC50 [2, 8]: > 100000 nM
C#CCOCCOCCOCCOCCNC(=O)N(CCOCCN(C)C(=O)O[C@@H]([C@@H]1OC(C(=O)O)=C[C@H](NC(=N)N)[C@H]1NC(C)=O)[C@H](O)CO)CCOCCN(C)C(=O)O[C@@H]([C@@H]1OC(C(=O)O)=C[C@H](NC(=N)N)[C@H]1NC(C)=O)[C@H](O)CO [C-Inter-2]	14.2 nM	0.42 nM	> 100000 nM	–
CC(=O)N[C@H]1[C@H]([C@H](O)[C@H](O)CO)OC(C(=O)O)=C[C@@H]1N=C(N)N [Zanamivir, zanamivir, reference compound]	–	–	–	EC50 (H1N1(A/PR/8/34) virus; MDCK): 39.7 nM; CC50 (in vitro): > 100000 nM; EC50 (H1N1(A/PR/8/34)): 45.7 nM; EC50 [5]: 90 nM; EC50 (B/YZ29/2019 (Victoria)): 59 nM; EC50 (IFV B/Lee/40; [7]): 57.5 nM; EC50 [2, 8]: > 10000 nM
